Assay results published in ChEMBL document CHEMBL1148493, “A combination of docking/dynamics simulations and pharmacophoric modeling to discover new dual c-Src/Abl kinase inhibitors” (J Med Chem, 2006).

How the values were obtained:
[1] = molecular target: Proto-oncogene tyrosine-protein kinase Src (Homo sapiens, UniProt P12931); assay: Binding affinity to human recombinant Src
[2] = molecular target: Tyrosine-protein kinase ABL1 (Homo sapiens) (UniProt P00519)
Tyrosine-protein kinase ABL1 (Homo sapiens), sequence (P00519 whole entry): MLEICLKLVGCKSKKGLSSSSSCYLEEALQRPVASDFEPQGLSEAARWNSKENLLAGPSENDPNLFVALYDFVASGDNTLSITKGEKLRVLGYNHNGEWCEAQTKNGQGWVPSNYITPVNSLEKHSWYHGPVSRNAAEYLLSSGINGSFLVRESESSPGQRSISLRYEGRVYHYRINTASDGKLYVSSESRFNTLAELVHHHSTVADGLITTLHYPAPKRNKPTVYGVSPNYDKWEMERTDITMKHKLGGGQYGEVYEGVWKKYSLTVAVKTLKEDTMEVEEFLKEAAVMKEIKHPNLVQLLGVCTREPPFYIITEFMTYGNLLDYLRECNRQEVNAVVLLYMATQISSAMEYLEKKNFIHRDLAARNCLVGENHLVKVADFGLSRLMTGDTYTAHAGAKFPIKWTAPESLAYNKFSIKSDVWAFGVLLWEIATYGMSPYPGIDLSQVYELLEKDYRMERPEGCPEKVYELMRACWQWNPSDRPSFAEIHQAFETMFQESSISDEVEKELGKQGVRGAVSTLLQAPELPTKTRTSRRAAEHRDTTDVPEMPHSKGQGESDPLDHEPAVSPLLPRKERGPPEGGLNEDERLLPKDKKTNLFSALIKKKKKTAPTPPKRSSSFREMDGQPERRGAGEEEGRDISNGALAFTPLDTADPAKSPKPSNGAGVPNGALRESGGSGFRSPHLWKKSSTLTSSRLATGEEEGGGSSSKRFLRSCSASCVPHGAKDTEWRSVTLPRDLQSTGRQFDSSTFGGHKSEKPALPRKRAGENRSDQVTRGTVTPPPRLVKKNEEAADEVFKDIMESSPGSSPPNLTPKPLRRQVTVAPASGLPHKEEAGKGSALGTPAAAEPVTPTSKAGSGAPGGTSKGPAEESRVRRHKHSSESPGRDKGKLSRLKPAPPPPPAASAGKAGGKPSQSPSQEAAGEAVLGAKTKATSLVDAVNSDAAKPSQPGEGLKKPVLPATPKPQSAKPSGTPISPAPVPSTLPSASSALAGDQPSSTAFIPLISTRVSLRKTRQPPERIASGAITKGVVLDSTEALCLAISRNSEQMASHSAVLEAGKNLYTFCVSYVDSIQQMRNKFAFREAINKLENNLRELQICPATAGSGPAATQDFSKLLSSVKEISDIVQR
Description: Binding affinity to human recombinant Abl

Proto-oncogene tyrosine-protein kinase Src, sequence (P12931 2-536 limits assumed): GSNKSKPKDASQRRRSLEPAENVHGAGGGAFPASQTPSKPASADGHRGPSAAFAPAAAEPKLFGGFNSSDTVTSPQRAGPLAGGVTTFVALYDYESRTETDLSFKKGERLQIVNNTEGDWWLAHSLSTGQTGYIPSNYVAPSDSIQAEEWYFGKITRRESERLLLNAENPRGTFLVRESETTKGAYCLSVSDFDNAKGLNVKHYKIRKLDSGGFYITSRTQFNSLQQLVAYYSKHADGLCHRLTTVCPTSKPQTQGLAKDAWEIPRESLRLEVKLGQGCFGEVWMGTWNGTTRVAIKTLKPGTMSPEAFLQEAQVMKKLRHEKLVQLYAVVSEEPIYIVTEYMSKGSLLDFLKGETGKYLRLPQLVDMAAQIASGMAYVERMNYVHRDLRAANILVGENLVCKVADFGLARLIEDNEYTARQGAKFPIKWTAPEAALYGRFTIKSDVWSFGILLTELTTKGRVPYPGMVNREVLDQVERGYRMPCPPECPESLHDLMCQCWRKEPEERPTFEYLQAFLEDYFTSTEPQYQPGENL

SMILES | ID50 [1] [mM] | ID50 [2] [mM] | Ki [1] [mM]
O=C(Nc1ccccc1)Nc1nnc(Cc2ccccc2)s1 | > 2 |  | 
O=C1NN(c2ccccc2)C(=O)/C1=C\c1ccccc1OCc1ccccc1 |  | > 2 | 
CCN(CC)c1ccc(/C=C2/C(=O)NN(c3ccc(I)cc3)C2=O)c(O)c1 |  | > 2 | 
O=C1NN(c2ccc(I)cc2)C(=O)/C1=C\c1ccc(N2CCOCC2)cc1 | > 2 |  | 

Continued, values first:

ID50 [1] [mM] | ID50 [2] [mM] | Ki [1] [mM] | SMILES
 | > 2 |  | COc1ccc(C(=O)Nc2nnc(Cc3c[nH]c4ccccc34)s2)cc1
 | > 2 | 0.0029 | O=C(Nc1nnc(CCc2ccccc2)s1)c1ccccc1
 | > 2 |  | O=C(Nc1nnc(CCc2ccccc2)s1)c1ccc(Cl)cc1Cl
> 2 | > 2 |  | Cc1ccc(-c2cnc(NC(=O)c3ccc(Br)cc3)s2)cc1
